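The compound was tested at five concentrations on cells cultured in 96-well plates, with a 48-hour exposure period. Definition used: TGI = concentration required for complete inhibition of growth.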
Experiments:
Assay in all cases: NCI-60 cell line screen, 48 h
[1] = system: XF 498 CNS
[2] = system: SNB-78 CNS
[3] = system: DLD-1 colon
[4] = system: DMS 114 small cell lung
[5] = system: HOP-18 NSCLC
[6] = system: DMS 273 small cell lung
[7] = system: KM20L2 colon
[8] = system: RXF-631 renal
[9] = system: M19-MEL melanoma

SMILES	TGI [1] [µM]	TGI [2] [µM]	TGI [3] [µM]	TGI [4] [µM]	TGI [5] [µM]	TGI [6] [µM]	TGI [7] [µM]	TGI [8] [µM]	TGI [9] [µM]
CSC(=N)N1N=C2/C(=C/c3ccccc3)CCC[C@H]2[C@H]1c1ccccc1	23.5	34.6	14.5	7.83	14.3	11.8	5.97		
CC(C)N(C(=O)C12C3C4C1C1C2C3C41C(=O)N(C(C)C)C(C)C)C(C)C (stereo not drawn)	> 50	> 50	> 50	> 50		> 50	> 50	> 50	> 50
CS(=O)(=O)C1(Br)S(=O)(=O)OCCOS1(=O)=O	> 100	> 100	> 100	> 100		> 100	> 100		> 100
C/C(N=NS(=O)(=O)c1ccc(C)cc1)=C1\C=CC=CN1O	> 100	> 100	> 100	> 100	> 100	> 100	> 100	> 100	> 100
CN(C)C(F)=PC(F)(F)F (stereo not drawn)	> 100	> 100	> 100	> 100	> 100	> 100	> 100		> 100
COC(=O)c1ccc(C=C(C#N)C#N)cc1			47.9	49.4	> 100	35.2	> 100	> 100	75.4
COC(=O)CCC(NC(=S)N/N=C(\C)c1cnccn1)C(=O)OC (stereo not drawn)	> 100	> 100	> 100	54.2	> 100		> 100	> 100	> 100
O=c1ccc2ccccc2c2ccccc12		17.7	14.7	4.7	14.9	14.3	3.85		10.7
CSc1ccc2c(cc1=O)C(NC(=O)c1ccc(C#N)cc1)CCc1cc(O)c(O)c(O)c1-2 (stereo not drawn)	89.2	> 100	70.2	44.9		> 100	45.5	> 100	39
CN(C)CC(/C(Cc1ccccc1)=N\NC(=S)NN)c1ccccc1 (stereo not drawn)	> 100	> 100	> 100	> 100		> 100	> 100		> 100
Nc1nc2ncn(CC(O)CO)c2c(=O)[nH]1 (stereo not drawn)		> 100	> 100	> 100	> 100	> 100	> 100	> 100	> 100
Nc1nc2c(ncn2CCCC(c2ccccc2)P(=O)(O)O)c(=O)[nH]1 (stereo not drawn)		> 100	> 100	> 100	> 100	> 100	> 100		> 100
COc1cc(-c2cc(=O)c3ccccc3[nH]2)cc(OC)c1OC		> 75	> 75	> 75		> 75	> 75		> 75
Oc1cccnc1/C=N/OCc1ccccc1	> 100	> 100	> 100	> 100		> 100	> 100		> 100
O=C(Nc1nc2ncn(CCO)c2c(=O)[nH]1)c1ccccc1		> 100	> 100	> 100	> 100	> 100	> 100		> 100
O=C(O)C12CC3CC(CC(F)(C3)C1)C2	> 100	> 100	> 100	> 100		> 100	> 100		> 100
COc1ccc(/C=C/c2cc(OC)c(OCc3ccccc3)c(OC)c2)cc1	> 100	> 100	> 100	> 100		> 100	> 100	> 100	> 100
NC(CCCCNCc1ccccc1O)C(=O)O (stereo not drawn)		> 100	> 100	> 100	> 100	> 100	> 100		> 100

Source: PubChem BioAssay (NCI)
